Reference: patent US20050176584A1, “Mehtod for high throughput screening of plant growth regulator” (Korea Research Institute of Bioscience and Biotechnology, priority 2002, published 2005)

Key:
[1] = system: Marchantia polymorpha L. photomixotrophic cells; assay: TTC high throughput screening of cell growth in microwell plate; assay type: cell-based; settings: for growth inhibition activities (IC50) to Marchantia polymorpha L. photomixotrophic cells: TTC analysis; for effect of natural compounds on cell growth, in words: 1 ppm
Lemna paucicostata = Lemna paucicostata growth inhibition in 24 well plate; settings: for inhibition at 31 ppm: Lemna aequinoctialis, 120 h, read-out: Lemna paucicostata (% activity)
[2] = system: Nicotiana tabacum cv. (BY4) photomixotrophic cells; assay: TTC analysis of growth inhibition, tobacco photomixotrophic cells; assay type: cell-based
Method: As Nicotiana tabacum cv. (BY4) photomixotrophic cells, the cells developed as NaCl resistance cells by Cha et al. (Cha et al., Korean J Bot, -36: 113-120, 1993) were used. For the culture of the above cells, MS minimal medium where 0.7 mg/l of 2,4-D and 0.03 mg/l of kinetin were added was used. 2 g of Nicotiana tabacum cv. […] The cells were sub-cultured at intervals of 14 days. The investigation procedure of cell viability in a 96 microwell plate of the present invention is precisely explained as follows. 1) Treating 150 μl of TTC solution into each well wherein cells are being cultured. 2) Five hours after treating TTC, removing the solution in wells with a 8-channel multi-pipette. 3) Adding 150 μl of 95% ethanol to the remaining cells of each well, and then reacting thereof at 60° C. for 1 hour. 4) After reaction finished, transferring the reacting solution into a new 96 well plate. 5) Measuring the optical density of the well plate at 490 nm wave length with a high throughput screening (HTS) reader. The explained method of the present invention is called high throughput screening. […] Oryza sativa L. cv (Taebaegbyeo) heterotrophic cells used in this experiment were developed from premature embryo (Korean J Plant Tissue Culture, 18: 209-214, 1991).

[3] = system: Oryza sativa L. cv (Taebaegbyeo) heterotrophic cells; assay: TTC analysis of growth inhibition, rice heterotrophic cells; assay type: cell-based; settings: for growth inhibition activities (IC50) to Oryza sativa L. cv (Taebaegbyeo) heterotrophic cells: TTC analysis; for growth inhibiting activity to non-photomixotrophic (heterotrophic) cells, in words: 10 ppm
Method: Other culture conditions were same as those for Marchantia polymorpha L. photomixotrophic cell culture. The investigation procedure of cell viability in a 96 microwell plate of the present invention is precisely explained as follows. 1) Treating 150 μl of TTC solution into each well wherein cells are being cultured. 2) Five hours after treating TTC, removing the solution in wells with a 8-channel multi-pipette. 3) Adding 150 μl of 95% ethanol to the remaining cells of each well, and then reacting thereof at 60° C. for 1 hour. 4) After reaction finished, transferring the reacting solution into a new 96 well plate. 5) Measuring the optical density of the well plate at 490 nm wave length with a high throughput screening (HTS) reader. The explained method of the present invention is called high throughput screening. […] Oryza sativa L. cv (Taebaegbyeo) heterotrophic cells used in this experiment were developed from premature embryo (Korean J Plant Tissue Culture, 18: 209-214, 1991).

[4] = Marchantia polymorpha, natural compounds, final concentration 1 ppm, + inhibiting, − promoting

| Structure (SMILES) | inhibition at 1 ppm [1, 4] [%] | inhibition at 31 ppm (Lemna paucicostata) [%] | growth inhibition activities (IC50) to Marchantia polymorpha L. photomixotrophic cells ([1]; 96 well plate) [ppm] | growth inhibition activities (IC50) to Nicotiana tabacum cv. (BY4) photomixotrophic cells [2] [ppm] | growth inhibition activities (IC50) to Oryza sativa L. cv (Taebaegbyeo) heterotrophic cells [3] [ppm] | also measured |
| --- | --- | --- | --- | --- | --- | --- |
| O=c1ccc2ccccc2o1 [Coumarin] | 33 | 80 | – | – | – | – |
| CC(C)Oc1cc(-n2nc(C(C)(C)C)oc2=O)c(Cl)cc1Cl [Oxadiazone] | – | – | 0.03 | 0.39 | 6.88 | – |
| Oc1ccc(O)cc1 [Hydroquinone] | 15 | 0 | – | – | – | – |
| COc1cc(/C=C/C(=O)O)ccc1O [Ferulic acid] | -35 | 20 | – | – | – | effect of natural compounds on cell growth, in words [1]: growth promoting activity |
| O=C(O)/C=C/c1ccccc1O [o-Coumaric acid] | 32 | 30 | – | – | – | – |
| COc1cc(C(=O)O)ccc1O [Vanillic acid] | 10 | 10 | – | – | – | – |
| CCNc1nc(Cl)nc(NC(C)C)n1 [Atrazine] | – | – | 0.21 | 0.18 | >10 | intracellular formazan content ([1]; 12 well plate, different concentrations, 1 and 5 hours after TTC): decreased dose-dependently; content that can inhibit cell growth upto about 50% ([1]; 96 well plate, TTC 5 hours): 0.18 ppm; IC50 ([1]; Marchantia polymorpha, 96 well plate, TTC 5 hours, read-out: content that can inhibit cell growth upto about 50%): 680 nM; growth inhibiting activity to non-photomixotrophic (heterotrophic) cells, in words [3]: low growth inhibiting activity or almost none |
| COc1cc(Oc2ccc(Cl)cc2Cl)ccc1[N+](=O)[O-] [Chloromethoxynil] | – | – | 0.076 | 0.193 | >10 | growth inhibiting activity to non-photomixotrophic (heterotrophic) cells, in words [3]: low growth inhibiting activity or almost none |
| O=c1oc2ccccc2c(O)c1Cc1c(O)c2ccccc2oc1=O [Dicumarol] | -31 | 30 | – | – | – | effect of natural compounds on cell growth, in words [1]: growth promoting activity |
| COCC(=O)OC(c1ncccc1S(=O)(=O)NC(=O)Nc1nc(OC)cc(OC)n1)C(C)F (stereo not shown) [LGC-42153] | – | – | 0.0011 | 0.0022 | 1.793 | – |
| CCOC(=O)c1cnn(C)c1S(=O)(=O)NC(=O)Nc1nc(OC)cc(OC)n1 [Prazolsulfuron-ethyl] | – | – | 0.0012 | 0.001 | 0.066 | – |
| O=C(O)c1cc(O)c(O)c(O)c1 [Gallic acid] | 8 | 0 | – | – | – | – |
| COc1cc(C(=O)O)cc(OC)c1O [Syringic acid] | 16 | 0 | – | – | – | – |
| O=c1ccc2ccc(O)cc2o1 [Umbelliferone] | 6 | 40 | – | – | – | – |
| COc1cc(OC)nc(Oc2cccc(Oc3nc(OC)cc(OC)n3)c2C(=O)ON=C(c2ccccc2)c2ccccc2)n1 [Pyribenzoxim] | – | – | 0.0092 | 0.0026 | 7.83 | – |
| O=C(O)c1cc(O)ccc1O [Gentistic acid] | – | – | – | – | – | Marchantia polymorpha L. photomixotrophic cells (% activity) ([1]; natural compounds, final concentration 1 ppm, + inhibiting, − promoting): 9%; Lemna paucicostata (% activity) (Lemna paucicostata; final concentration 31 ppm, 5 days after treating): 0% |
| CC(Oc1ccc2ccccc2c1)C(=O)Nc1ccccc1 (stereo not shown) [Naproanilide] | – | – | 0.054 | 0.0019 | 6.69 | – |
| CCOC(=O)c1ccc(O)c(O)c1 [Protocatechuic acid ethyl ester] | 22 | 70 | – | – | – | – |
| CCOC(=O)[C@@H](C)Oc1ccc(Oc2nc3ccc(Cl)cc3o2)cc1 [Phenoxapro-P-ethyl] | – | – | 0.70 | 4.58 | 6.47 | – |
| CCC(=O)Nc1ccc(Cl)c(Cl)c1 [Propanil] | – | – | 0.037 | 5.83 | 8.49 | – |
| O=C(O)c1ccccc1 [Benzoic acid] | – | 10 | – | – | – | – |
| CSC(=O)c1c(C(F)F)nc(C(F)(F)F)c(C(=O)SC)c1CC(C)C [Dithiopyr] | – | – | 0.048 | 0.141 | 0.613 | – |
| CON(C)C(=O)Nc1ccc(Cl)c(Cl)c1 [Linurone] | – | – | 0.244 | >10 | 7.07 | – |
| O=C1COc2ccccc21 [3-Coumaranone] | -18 | 0 | – | – | – | effect of natural compounds on cell growth, in words [1]: growth promoting activity |
| O=C(Nc1ccc(F)cc1F)c1cccnc1Oc1cccc(C(F)(F)F)c1 [Diflufenican] | – | – | 0.031 | 4.67 | >10 | growth inhibiting activity to non-photomixotrophic (heterotrophic) cells, in words [3]: low growth inhibiting activity or almost none |
| O=C(O)/C=C/c1ccc(O)c(O)c1 [Caffeic acid] | 21 | 30 | – | – | – | – |
| O=C(O)/C=C/c1ccc(O)cc1 [p-Coumaric acid] | 17 | 30 | – | – | – | – |
| COc1cc2ccc(=O)oc2cc1O [Scopoletin] | 16 | 0 | – | – | – | – |
| CC(C)C1(C)N=C(c2ncccc2C(=O)O)NC1=O (stereo not shown) [Amazapyr] | – | – | 0.35 | 0.018 | 0.269 | – |
